# Reference: patent US9845340B2, “Peptides that specifically bind HGF receptor (cMet) and uses thereof” (Dyax Corp., priority 2003, dated 2017)
# Columns and labels:
# [1] = biological target: T1, 3T3 cells that over-express human cMet (Homo sapiens, UniProt P08581); experiment: Whole cell ELISA of peptide-displaying phage; assay type: cell-based; details: phage isolate; 3T3 cells expressing human cMet vs. non-expressing 3T3 cells
# T1 construct: expressed in transfected cells; host or cells: 3T3 cells
# T1 sequence (P08581 25-1390): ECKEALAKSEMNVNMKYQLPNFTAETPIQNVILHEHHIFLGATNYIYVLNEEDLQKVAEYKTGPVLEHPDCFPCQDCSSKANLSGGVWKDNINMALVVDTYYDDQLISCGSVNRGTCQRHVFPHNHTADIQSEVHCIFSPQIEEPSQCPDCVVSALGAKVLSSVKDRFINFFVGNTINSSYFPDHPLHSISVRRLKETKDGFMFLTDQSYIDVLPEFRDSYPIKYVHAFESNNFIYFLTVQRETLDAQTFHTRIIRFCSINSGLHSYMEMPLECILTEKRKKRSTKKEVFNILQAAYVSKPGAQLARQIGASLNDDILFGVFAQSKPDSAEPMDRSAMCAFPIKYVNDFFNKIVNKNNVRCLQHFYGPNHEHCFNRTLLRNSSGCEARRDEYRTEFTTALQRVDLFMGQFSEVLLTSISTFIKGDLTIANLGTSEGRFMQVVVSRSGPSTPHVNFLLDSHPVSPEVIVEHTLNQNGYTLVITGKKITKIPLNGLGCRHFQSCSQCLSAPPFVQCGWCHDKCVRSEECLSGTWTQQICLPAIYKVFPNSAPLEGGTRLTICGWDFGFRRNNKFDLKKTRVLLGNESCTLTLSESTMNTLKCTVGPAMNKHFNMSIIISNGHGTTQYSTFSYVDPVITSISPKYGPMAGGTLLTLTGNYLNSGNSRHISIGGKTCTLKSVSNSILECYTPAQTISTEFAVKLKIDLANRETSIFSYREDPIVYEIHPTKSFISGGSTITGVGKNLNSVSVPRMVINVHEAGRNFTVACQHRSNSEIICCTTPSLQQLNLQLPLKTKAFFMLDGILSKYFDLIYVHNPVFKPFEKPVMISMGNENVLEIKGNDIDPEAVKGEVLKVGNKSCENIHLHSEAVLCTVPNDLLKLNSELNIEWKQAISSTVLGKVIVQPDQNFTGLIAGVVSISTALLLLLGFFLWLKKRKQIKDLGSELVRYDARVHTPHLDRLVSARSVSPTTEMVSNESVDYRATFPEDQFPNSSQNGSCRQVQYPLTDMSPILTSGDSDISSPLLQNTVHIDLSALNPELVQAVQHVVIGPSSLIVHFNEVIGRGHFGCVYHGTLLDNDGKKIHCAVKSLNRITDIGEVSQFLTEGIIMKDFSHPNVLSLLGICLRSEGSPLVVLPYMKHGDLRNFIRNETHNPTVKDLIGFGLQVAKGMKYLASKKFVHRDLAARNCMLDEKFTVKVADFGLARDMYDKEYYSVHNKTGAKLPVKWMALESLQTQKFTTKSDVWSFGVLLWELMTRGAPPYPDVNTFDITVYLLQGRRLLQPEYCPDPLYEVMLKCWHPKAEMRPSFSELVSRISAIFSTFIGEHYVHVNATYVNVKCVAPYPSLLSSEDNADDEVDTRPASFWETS
# Protocol: Whole cell ELISAs were performed using 3T3 cells that over-express human cMet. […] Briefly, 96-well plates were seeded with 10^5 cells per well. The plates were centrifuged for 5 minutes at 1600 rpm to pellet the cells. The resulting cell layer was fixed with 0.1% (v/v) glutaraldehyde for 12 minutes at 37 C. […] Peptide-displaying phage also were blocked in the above solution for 1 hour at 37 C. 100 μL of blocked phage was then added to each well and the plates were incubated for 1 hour at room temperature. The plates were washed with PBST. cMet-binding peptide-displaying phage were detected using an HRP-conjugated anti-M13 antibody.
# [2] = biological target: cMet-Fc fusion protein (Homo sapiens, UniProt P08581); experiment: Protein phage ELISA: peptide-displaying phage binding to soluble cMet-Fc versus TRAIL-Fc; details: phage isolate; cMet-Fc vs. TRAIL-Fc
# Sequence of cMet-Fc fusion protein (P08581 25-307 limits assumed): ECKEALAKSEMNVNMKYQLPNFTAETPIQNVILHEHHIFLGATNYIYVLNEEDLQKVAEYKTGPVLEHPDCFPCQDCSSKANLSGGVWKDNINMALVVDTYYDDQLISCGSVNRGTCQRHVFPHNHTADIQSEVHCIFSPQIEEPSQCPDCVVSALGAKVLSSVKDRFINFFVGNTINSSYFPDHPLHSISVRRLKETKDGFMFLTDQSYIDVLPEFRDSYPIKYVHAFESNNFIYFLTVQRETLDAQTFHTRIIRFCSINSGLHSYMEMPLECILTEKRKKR
# Sequence of cMet-Fc fusion protein (P08581 with tags, fused parts or gaps limits assumed): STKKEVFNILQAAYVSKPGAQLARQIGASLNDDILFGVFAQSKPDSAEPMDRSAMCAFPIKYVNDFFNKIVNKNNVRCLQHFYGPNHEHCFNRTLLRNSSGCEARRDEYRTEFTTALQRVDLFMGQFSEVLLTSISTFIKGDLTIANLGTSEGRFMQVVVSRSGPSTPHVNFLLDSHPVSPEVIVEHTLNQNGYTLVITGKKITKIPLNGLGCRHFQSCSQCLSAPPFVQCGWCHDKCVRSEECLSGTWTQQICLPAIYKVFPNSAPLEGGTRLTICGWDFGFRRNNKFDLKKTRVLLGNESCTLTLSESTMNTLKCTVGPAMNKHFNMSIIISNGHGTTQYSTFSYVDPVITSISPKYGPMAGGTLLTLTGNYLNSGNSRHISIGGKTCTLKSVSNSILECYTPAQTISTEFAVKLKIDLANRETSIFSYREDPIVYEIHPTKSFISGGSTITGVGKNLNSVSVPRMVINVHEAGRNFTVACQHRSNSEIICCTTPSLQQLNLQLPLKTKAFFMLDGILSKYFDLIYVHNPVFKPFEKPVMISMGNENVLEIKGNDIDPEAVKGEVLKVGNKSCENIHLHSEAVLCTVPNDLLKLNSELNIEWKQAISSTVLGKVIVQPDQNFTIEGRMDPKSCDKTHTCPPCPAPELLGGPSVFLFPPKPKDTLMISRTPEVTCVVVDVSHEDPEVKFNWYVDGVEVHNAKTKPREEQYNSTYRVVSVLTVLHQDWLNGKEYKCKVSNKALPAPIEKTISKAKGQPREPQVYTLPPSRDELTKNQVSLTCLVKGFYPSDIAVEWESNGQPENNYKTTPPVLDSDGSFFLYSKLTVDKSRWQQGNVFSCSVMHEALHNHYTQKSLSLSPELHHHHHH
# Protocol: Protein phage ELISAs using peptide-displaying phage isolates from the various selection campaigns were performed to determine specificity of the peptides for cMet versus an unrelated Fc-fusion protein (TRAIL-Fc). Briefly, 384-well plates were coated overnight at 4 C with 0.5 μg/mL of cMet-Fc fusion protein or TRAIL-Fc fusion protein (background). The plates were blocked for 2 hours 37C with 3% (w/v) BSA in PBS containing 0.05% (v/v) Tween-20 (PBST). The plates were washed with PBST and 100 μL of peptide-displaying phage were added to each well. The plates were incubated for 2 hours at room temperature and washed with PBST. cMet-binding peptide-displaying phage were detected using an HRP-conjugated anti-M13 antibody.
WC ELISA [1] [fold over background],Protein ELISA [2] [fold over background],SMILES
1.47,18.3,CC(=O)N[C@@H](C)C(=O)NCC(=O)N[C@@H](CO)C(=O)N[C@@H](Cc1c[nH]c2ccccc12)C(=O)N[C@@H](Cc1c[nH]cn1)C(=O)N[C@H]1CSSC[C@@H](C(=O)N[C@@H](Cc2c[nH]c3ccccc23)C(=O)N[C@@H](CCC(=O)O)C(=O)N[C@@H](Cc2ccccc2)C(=O)NCC(=O)N[C@H](C(=O)NCC(=O)NCC(=O)NCC(=O)N[C@@H](CCCCNC(=O)c2ccc3c(c2)C(=O)OC32c3ccc(O)cc3Oc3cc(O)ccc32)C(N)=O)[C@@H](C)O)NC(=O)[C@H](CCC(=O)O)NC(=O)[C@H](Cc2ccccc2)NC(=O)[C@H](CO)NC(=O)[C@@H]2CCCN2C(=O)[C@@H]2CCCN2C(=O)CNC(=O)[C@H](C)NC1=O [SEQ ID NO: 055]
1.47,8.0,CC(=O)N[C@@H](C)C(=O)NCC(=O)NCC(=O)N[C@@H](Cc1c[nH]c2ccccc12)C(=O)N[C@@H](CCC(=O)O)C(=O)N[C@H]1CSSC[C@@H](C(=O)NCC(=O)N[C@@H](Cc2ccc(O)cc2)C(=O)N[C@@H](Cc2ccc(O)cc2)C(=O)NCC(=O)N[C@H](C(=O)NCC(=O)NCC(=O)NCC(=O)N[C@@H](CCCCNC(=O)c2ccc3c(c2)C(=O)OC32c3ccc(O)cc3Oc3cc(O)ccc32)C(N)=O)[C@@H](C)O)NC(=O)[C@H](CCC(N)=O)NC(=O)[C@H](Cc2ccccc2)NC(=O)[C@H](Cc2c[nH]c3ccccc23)NC(=O)[C@@H]2CCCN2C(=O)[C@@H]2CCCN2C(=O)CNC(=O)[C@H]([C@@H](C)O)NC1=O [SEQ ID NO: 067]
1.33,6.3,CC[C@H](C)[C@H](NC(=O)[C@H](CC(=O)O)NC(=O)CNC(=O)[C@H](C)NC(C)=O)C(=O)N[C@H](C(=O)N[C@H]1CSSC[C@@H](C(=O)N[C@@H](Cc2c[nH]c3ccccc23)C(=O)N[C@@H](CO)C(=O)N[C@@H](Cc2c[nH]c3ccccc23)C(=O)NCC(=O)N[C@H](C(=O)NCC(=O)NCC(=O)NCC(=O)N[C@@H](CCCCNC(=O)c2ccc3c(c2)C(=O)OC32c3ccc(O)cc3Oc3cc(O)ccc32)C(N)=O)[C@@H](C)O)NC(=O)[C@H](CCC(=O)O)NC(=O)[C@H](Cc2ccccc2)NC(=O)[C@H](Cc2ccc(O)cc2)NC(=O)[C@@H]2CCCN2C(=O)[C@H](Cc2c[nH]cn2)NC(=O)CNC(=O)[C@H]([C@@H](C)O)NC1=O)C(C)C [SEQ ID NO: 068]

# The remaining lines, values behind:
SMILES,WC ELISA [1] [fold over background],Protein ELISA [2] [fold over background]
CC[C@H](C)[C@H](NC(=O)[C@H](Cc1c[nH]c2ccccc12)NC(=O)[C@H](CO)NC(=O)CNC(C)=O)C(=O)N[C@H](C(=O)N[C@H]1CSSC[C@@H](C(=O)NCC(=O)N[C@@H](CO)C(=O)N[C@@H](CO)C(=O)N[C@@H](C)C(=O)N2CCC[C@H]2C(=O)NCC(=O)NCC(=O)NCC(=O)N[C@@H](CCCCNC(=O)c2ccc3c(c2)C(=O)OC32c3ccc(O)cc3Oc3cc(O)ccc32)C(N)=O)NC(=O)[C@H](CC(N)=O)NC(=O)[C@H](CC(=O)O)NC(=O)[C@H](Cc2c[nH]c3ccccc23)NC(=O)[C@H](Cc2c[nH]c3ccccc23)NC1=O)[C@@H](C)CC [SEQ ID NO: 001],1.30,4.9
CC[C@H](C)[C@H](NC(=O)[C@H](CO)NC(=O)CNC(=O)[C@H](C)NC(C)=O)C(=O)N[C@@H](CCC(N)=O)C(=O)N[C@H]1CSSC[C@@H](C(=O)N[C@@H](C)C(=O)N[C@@H](CCSC)C(=O)N[C@@H](Cc2ccc(O)cc2)C(=O)NCC(=O)N[C@H](C(=O)NCC(=O)NCC(=O)NCC(=O)N[C@@H](CCCCNC(=O)c2ccc3c(c2)C(=O)OC32c3ccc(O)cc3Oc3cc(O)ccc32)C(N)=O)[C@@H](C)O)NC(=O)[C@H](CO)NC(=O)[C@H](Cc2ccccc2)NC(=O)[C@H](Cc2c[nH]c3ccccc23)NC(=O)[C@@H]2CCCN2C(=O)[C@@H]2CCCN2C(=O)CNC(=O)[C@H](CCCCN)NC1=O [SEQ ID NO: 048],1.47,15.9
CC(=O)N[C@@H](C)C(=O)NCC(=O)N[C@@H](Cc1c[nH]c2ccccc12)C(=O)N[C@@H](Cc1ccccc1)C(=O)N[C@@H](CCC(N)=O)C(=O)N[C@H]1CSSC[C@@H](C(=O)N[C@@H](CCC(=O)O)C(=O)N[C@@H](CCCNC(=N)N)C(=O)N[C@@H](Cc2c[nH]cn2)C(=O)NCC(=O)N[C@H](C(=O)NCC(=O)NCC(=O)NCC(=O)N[C@@H](CCCCNC(=O)c2ccc3c(c2)C(=O)OC32c3ccc(O)cc3Oc3cc(O)ccc32)C(N)=O)[C@@H](C)O)NC(=O)[C@H](CCC(=O)O)NC(=O)[C@H](Cc2ccccc2)NC(=O)[C@H](CO)NC(=O)[C@@H]2CCCN2C(=O)[C@@H]2CCCN2C(=O)CNC(=O)[C@H](CCCCN)NC1=O [SEQ ID NO: 051],1.33,5.4
CC[C@H](C)[C@@H]1NC(=O)[C@@H](NC(=O)[C@H](Cc2c[nH]cn2)NC(=O)[C@@H](NC(=O)[C@H](Cc2c[nH]c3ccccc23)NC(=O)CNC(=O)[C@H](C)NC(C)=O)[C@@H](C)O)CSSC[C@@H](C(=O)N[C@H](C(=O)N2CCC[C@H]2C(=O)N[C@@H](CCSC)C(=O)NCC(=O)N[C@H](C(=O)NCC(=O)NCC(=O)NCC(=O)N[C@@H](CCCCNC(=O)c2ccc3c(c2)C(=O)OC32c3ccc(O)cc3Oc3cc(O)ccc32)C(N)=O)[C@@H](C)O)[C@@H](C)CC)NC(=O)[C@H](CCC(=O)O)NC(=O)[C@H](Cc2ccccc2)NC(=O)[C@H]([C@@H](C)O)NC(=O)[C@@H]2CCCN2C(=O)[C@@H]2CCCN2C(=O)CNC1=O [SEQ ID NO: 052],1.30,8.0
CC(=O)N[C@@H](C)C(=O)NCC(=O)N[C@@H](CO)C(=O)N[C@@H](Cc1ccccc1)C(=O)N[C@@H](C)C(=O)N[C@H]1CSSC[C@@H](C(=O)N[C@H](C(=O)N[C@@H](CCC(=O)O)C(=O)N[C@@H](Cc2ccccc2)C(=O)NCC(=O)N[C@H](C(=O)NCC(=O)NCC(=O)NCC(=O)N[C@@H](CCCCNC(=O)c2ccc3c(c2)C(=O)OC32c3ccc(O)cc3Oc3cc(O)ccc32)C(N)=O)[C@@H](C)O)C(C)C)NC(=O)[C@H](C)NC(=O)[C@H](Cc2ccccc2)NC(=O)[C@H]([C@@H](C)O)NC(=O)[C@@H]2CCCN2C(=O)[C@@H]2CCCN2C(=O)CNC(=O)[C@H](CCCCN)NC1=O [SEQ ID NO: 053],1.27,18.1
CC[C@H](C)[C@H](NC(=O)[C@H](Cc1c[nH]c2ccccc12)NC(=O)CNC(=O)[C@H](C)NC(C)=O)C(=O)N[C@@H](CO)C(=O)N[C@H]1CSSC[C@@H](C(=O)N[C@@H](Cc2c[nH]c3ccccc23)C(=O)N2CCC[C@H]2C(=O)NCC(=O)NCC(=O)N[C@H](C(=O)NCC(=O)NCC(=O)NCC(=O)N[C@@H](CCCCNC(=O)c2ccc3c(c2)C(=O)OC32c3ccc(O)cc3Oc3cc(O)ccc32)C(N)=O)[C@@H](C)O)NC(=O)[C@H](C)NC(=O)[C@H](Cc2ccccc2)NC(=O)[C@H]([C@@H](C)O)NC(=O)[C@@H]2CCCN2C(=O)[C@@H]2CCCN2C(=O)CNC(=O)[C@H](C)NC1=O [SEQ ID NO: 056],1.23,14.3
CC(=O)N[C@@H](C)C(=O)NCC(=O)N[C@@H](Cc1ccc(O)cc1)C(=O)N[C@H](C(=O)N[C@@H](CO)C(=O)N[C@H]1CSSC[C@@H](C(=O)N[C@H](C(=O)N2CCC[C@H]2C(=O)N[C@@H](Cc2ccc(O)cc2)C(=O)NCC(=O)N[C@H](C(=O)NCC(=O)NCC(=O)NCC(=O)N[C@@H](CCCCNC(=O)c2ccc3c(c2)C(=O)OC32c3ccc(O)cc3Oc3cc(O)ccc32)C(N)=O)[C@@H](C)O)[C@@H](C)O)NC(=O)[C@H](CCC(=O)O)NC(=O)[C@H](Cc2ccccc2)NC(=O)[C@H](CO)NC(=O)[C@@H]2CCCN2C(=O)[C@@H]2CCCN2C(=O)CNC(=O)[C@H](C(C)C)NC1=O)[C@@H](C)O [SEQ ID NO: 059],1.43,21.2
CC(=O)N[C@@H](C)C(=O)NCC(=O)N[C@@H](Cc1c[nH]cn1)C(=O)N[C@@H](C)C(=O)N[C@@H](Cc1c[nH]c2ccccc12)C(=O)N[C@H]1CSSC[C@@H](C(=O)N[C@@H](Cc2c[nH]c3ccccc23)C(=O)N2CCC[C@H]2C(=O)N2CCC[C@H]2C(=O)NCC(=O)N[C@H](C(=O)NCC(=O)NCC(=O)NCC(=O)N[C@@H](CCCCNC(=O)c2ccc3c(c2)C(=O)OC32c3ccc(O)cc3Oc3cc(O)ccc32)C(N)=O)[C@@H](C)O)NC(=O)[C@H](CCC(=O)O)NC(=O)[C@H](Cc2ccccc2)NC(=O)[C@H](CCCNC(=N)N)NC(=O)[C@@H]2CCCN2C(=O)[C@@H]2CCCN2C(=O)CNC(=O)[C@H](CO)NC1=O [SEQ ID NO: 061],1.27,3.2
